The text below walks through data of paper PMC10350922, “Allosteric Inhibitors of Macrophage Migration Inhibitory Factor (MIF) Interfere with Apoptosis-Inducing Factor (AIF) Co-Localization to Prevent Parthanatos” (Journal of Medicinal Chemistry, 2023).

For test [1], the target named is T1, MIF (Homo sapiens, UniProt P14174).
T1 construct: made in house; host or cells: Escherichia coli BL21, pET-20b(p) plasmid
T1 sequence (P14174 2-115 limits assumed): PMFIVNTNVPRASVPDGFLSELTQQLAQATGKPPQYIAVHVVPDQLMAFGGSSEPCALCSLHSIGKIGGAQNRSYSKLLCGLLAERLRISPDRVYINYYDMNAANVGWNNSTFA
The test is described as follows: MIF tautomerase activity assay (PP substrate, UV absorbance at 300 nm). As to conditions: for IC50: PP as substrate, 10 min preincubation, read-out: IC50, inhibition of MIF tautomerase activity. It counts as biochemical. The protocol: Recombinant human MIF with a C-terminal His-tag was expressed and purified following methods published previously.[47] The inhibitory potency for MIF tautomerase activity of the 1-phenyl-1H-1,2,3-triazole-4-carboxamides was measured after pre-incubation with MIF. The MIF-catalyzed PP tautomerization was measured by the corresponding change in UV absorbance over the first 3 min of the reaction.[48] Initial screening of the inhibitory potency was performed at 10 μM inhibitor concentration.
Inhibition of the tautomerase activity and kinetics of MIF was measured using […] (PP) as a substrate. A stock solution was prepared by mixing PP in 50 mM ammonium acetate buffer and adjusted to pH 6.0 using 1.0 M NaOH to provide a concentration of 20 mM. This solution was incubated overnight at 37 °C to allow equilibration of the keto and enol forms and then stored at 4 °C. For the assay, MIF stock solution (10 μL, 70 μM) was diluted in 20 mL of the boric acid buffer (435 mM H3BO3, 1 mM EDTA, pH 6.2) to provide 35 nM solution. The enzyme activity was determined by premixing 192 μL of the MIF dilution with 8 μL of the inhibitors dissolved in DMSO (1 mM). This mixture was preincubated for 10 min. Next, 50 μL of the mixture was mixed with 50 μL of 2 mM PP solution in ammonium acetate buffer. Subsequently, MIF tautomerase activity was monitored by the formation of the borate–enol complex, which was measured by the increase in UV absorbance at 300 nm. The increase in UV absorbance was measured over the first 10 min of incubation using a BioTek Synergy H1 Hybrid plate reader. MIF tautomerase activity in the presence of blank DMSO was set to 100% enzyme activity. […] Data from the first 3 min were used to calculate the initial velocities. All of the graphs were prepared in GraphPad Prism.
For the IC50 measurements, 1 mM solutions of the compounds were double-diluted 10 times in DMSO and subsequently, the MIF tautomerase activity was determined by premixing 190 μL of the MIF dilution with 10 μL of the inhibitors. This mixture was preincubated for 10 min and mixed with the 2 mM PP solution as described above.

The subject of another test is HeLa cells. The test is described as follows: Cell viability (MTS) assay, MNNG-induced parthanatos. It counts as cell-based. As to conditions: MTS assay. Background: Formazan colour is commonly taken as a measure of viable cells.
The target of test [2] is MIF. Also on record: method as in PMID 32940040. As to conditions: competitive MIF tautomerase inhibitor; cited from earlier work.
[3] abbreviates: 10 μM inhibitor, activity without inhibitor set to 100%, mean, n = 3.

In the case of `CC(NC(=O)c1cn(-c2ccc(C(=O)NC3CC3)cc2)nn1)c1ccccc1` (centres unmarked) [Compound 6w, 1-(4-(Cyclopropylcarbamoyl)phenyl)-N-(1-phenylethyl)-1H-1,2,3-triazole-4-carboxamide], the remaining activity (in general, the activity still measured, relative to the control) at 10 µM on MIF [1] (setting [3]) stood at 39%.
The same measure, in the same setting: the figure for `O=C(CCc1ccco1)NCc1cn(-c2ccc(Cl)c(Cl)c2)nn1` [Compound 6i] is 90%; for `O=C(Nc1ccc(Br)cc1)c1cn(-c2ccccc2)nn1` [Compound 6c, N-(4-Bromophenyl)-1-phenyl-1H-1,2,3-triazole-4-carboxamide] it is 37%.
Take `O=C(Nc1ccc(F)cc1)c1cn(-c2ccccc2)nn1` [Compound 6b, N-(4-Fluorophenyl)-1-phenyl-1H-1,2,3-triazole-4-carboxamide]: the remaining activity at 10 µM at MIF [1] (setting [3]) amounted to 65%.
In the case of `Cc1ccc(-n2cc(C(=O)Nc3ccc(F)cc3)nn2)cc1C` [Compound 6g, 1-(3,4-Dimethylphenyl)-N-(4-fluorophenyl)-1H-1,2,3-triazole-4-carboxamide], the remaining activity at 10 µM at MIF [1] (setting [3]) was 54%.
Same read-out and setting: the figure for `COC(=O)CC1CC(c2ccc(O)cc2)=NO1` (centres unmarked) [ISO-1, reference compound] is 60%; for `COC(=O)C(Cc1ccccc1)NC(=O)c1cn(-c2ccc(Cl)c(Cl)c2)nn1` (centres unmarked) [Compound 6j, Methyl-(1-(3,4-dichlorophenyl)-1H-1,2,3-triazole-4-carbonyl)phenylalaninate] it is 58%.
As for `O=C(NCc1ccc(Cl)cc1)c1cn(-c2ccc(Cl)cc2)nn1` [Compound 6r, N-(4-Chlorobenzyl)-1-4-chlorophenyl-1H-1,2,3-triazole-4-carboxamide], on MIF [1] (setting [3]), the remaining activity at 10 µM came to 57%.
Consider `O=C(NCCc1ccccc1)c1cn(-c2cccc3ncccc23)nn1` [Compound 6u, N-Phenethyl-1-(quinolin-5-yl)-1H-1,2,3-triazole-4-carboxamide], for which the remaining activity at 10 µM on MIF [1] (setting [3]) was 66%.
Turning to `O=C(Nc1ccccc1)c1ccc(-n2cc(C(=O)NCc3ccccc3)nn2)cc1` [Compound 6x, N-Benzyl-1-(4-(phenylcarbomyl)phenyl)-1H-1,2,3-triazole-4-carboxamide], the remaining activity at 10 µM at MIF [1] (setting [3]) was 14%. Besides, the IC50 (in general, the concentration that gives 50% inhibition) at MIF [1] is 2.5 ± 0.1 µM.
Take `COc1ccccc1-n1cc(C(=O)Nc2ccc(Cl)cc2)nn1` [Compound 6d, N-(4-Chlorophenyl)-1-(2-methoxyphenyl)-1H-1,2,3-triazole-4-carboxamide]: the remaining activity at 10 µM at MIF [1] (setting [3]) was 87%.
`CCc1ccc(-n2cc(C(=O)Nc3cccc(F)c3)nn2)cc1` [Compound 6f, 1-(4-Ethylphenyl)-N-(3-fluorophenyl)-1H-1,2,3-triazole-4-carboxamide]: the remaining activity at 10 µM at MIF [1] (setting [3]) came to 50%.
`COc1ccc(N2Cc3ccc(O)cc3OC2=O)cc1OC` [ZP143, reference compound]: the “Protective effect in MNNG-induced parthanatos” value in the test with HeLa cells was “no protective effect”. Moreover, on MIF [2], the Ki (in general, a measure of affinity in units of concentration, obtained from inhibition or displacement) is 0.1 ± 0.01 µM.
As for “N-(4-Bromophenyl)-1-(4-cyanophenyl)-1H-1,2,3-triazole-4-carboxamide [Compound 6o]”, the “Activity of MIF (%)” value at MIF [1] (setting [3]) came to 44%.
Take `COc1ccccc1-n1cc(C(=O)NC(C)c2ccc(Br)cc2)nn1` (centres unmarked) [Compound 6e, N-(1-(4-Bromophenyl)ethyl)-1-(2-methoxyphenyl)-1H-1,2,3-triazole-4-carboxamide]: on MIF [1] (setting [3]), the remaining activity at 10 µM was 79%.
Take `O=C(NC1CCCC1)c1cn(-c2ccc(Cl)c(Cl)c2)nn1` [Compound 6k, N-Cyclopentyl-1-(3,4-dichlorophenyl)-1H-1,2,3-triazole-4-carboxamide]: the remaining activity at 10 µM at MIF [1] (setting [3]) amounted to 50%.
Still for that read-out and setting: the figure for `O=C(NCc1ccc(Cl)cc1)c1cn(-c2ccc(F)cc2)nn1` [Compound 6q, N-(4-Chlorobenzyl)-1-(4-fluorophenyl)-1H-1,2,3-triazole-4-carboxamide] is 58%.
As for `Cc1ccc(-n2cc(C(=O)NCc3ccccc3)nn2)cc1C` [Compound 6v, N-Benzyl-1-(3,4-dimethylphenyl)-1H-1,2,3-triazole-4-carboxamide], on MIF [1] (setting [3]), the remaining activity at 10 µM amounted to 21%. Further, at MIF [1], the IC50 was found to be 6.5 ± 0.4 µM.
`CCc1ccc(NC(=O)c2cn(-c3ccc(F)cc3[N+](=O)[O-])nn2)cc1` [Compound 6p, N-(4-Ethylphenyl)-1-(4-fluoro-2-nitrophenyl)-1H-1,2,3-triazole-4-carboxamide]: the remaining activity at 10 µM on MIF [1] (setting [3]) amounted to 45%.
With `O=C(Nc1ccccc1)c1cn(-c2ccccc2)nn1` [Compound 6a, N,1-Diphenyl-1H-1,2,3-triazole-4-carboxamide], the remaining activity at 10 µM on MIF [1] (setting [3]) came to 84%.
As for `COc1ccc(CNC(=O)c2cn(-c3ccc(Cl)c(Cl)c3)nn2)cc1OC` [Compound 6m, 1-(3,4-Dichlorophenyl)-N-(3,4-dimethoxybenzyl)-1H-1,2,3-triazole-4-carboxamide], the remaining activity at 10 µM at MIF [1] (setting [3]) came to 80%.
For `O=C(NCCc1ccccc1)c1cn(-c2cccc(Cl)c2)nn1` [Compound 6s, 1-(3-Chlorophenyl)-N-phenethyl-1H-1,2,3-triazole-4-carboxamide], the remaining activity at 10 µM on MIF [1] (setting [3]) amounted to 40%.
Consider `O=C(NCc1ccco1)c1cn(-c2ccc(Cl)c(Cl)c2)nn1` [Compound 6l, 1-(3,4-Dichlorophenyl)-N-(furan-2-ylmethyl)-1H-1,2,3-triazole-4-carboxamide], for which the remaining activity at 10 µM on MIF [1] (setting [3]) is 38%.
On the same count and under the same terms, the figure for `O=C(NCCc1ccccc1Cl)c1cn(-c2ccc(Cl)c(Cl)c2)nn1` [Compound 6h, N-(2-Chlorophenethyl)-1-(3,4-dichlorophenyl)-1H-1,2,3-triazole-4-carboxamide] is 65%; for `N#Cc1cc(Cl)ccc1-n1cc(C(=O)Nc2ccc(F)cc2)nn1` [Compound 6n, 1-(4-Chloro-2-cyanophenyl)-N-(4-fluorophenyl)-1H-1,2,3-triazole-4-carboxamide] it is 47%; for `O=C(NCCc1ccccc1Cl)c1cn(-c2cccc(Cl)c2)nn1` [Compound 6t, N-(2-Chlorophenethyl)-1-(3-chlorophenyl)-1H-1,2,3-triazole-4-carboxamide] it is 66%.
